Test results as given in ChEMBL document CHEMBL1132563, “Three-dimensional quantitative structure-activity relationship of interleukin 1-beta converting enzyme inhibitors: A comparative molecular field analysis study” (J Med Chem, 1999).

Molecular target: T1, Caspase-1 (Homo sapiens) (UniProt P29466)
T1 sequence (whole entry): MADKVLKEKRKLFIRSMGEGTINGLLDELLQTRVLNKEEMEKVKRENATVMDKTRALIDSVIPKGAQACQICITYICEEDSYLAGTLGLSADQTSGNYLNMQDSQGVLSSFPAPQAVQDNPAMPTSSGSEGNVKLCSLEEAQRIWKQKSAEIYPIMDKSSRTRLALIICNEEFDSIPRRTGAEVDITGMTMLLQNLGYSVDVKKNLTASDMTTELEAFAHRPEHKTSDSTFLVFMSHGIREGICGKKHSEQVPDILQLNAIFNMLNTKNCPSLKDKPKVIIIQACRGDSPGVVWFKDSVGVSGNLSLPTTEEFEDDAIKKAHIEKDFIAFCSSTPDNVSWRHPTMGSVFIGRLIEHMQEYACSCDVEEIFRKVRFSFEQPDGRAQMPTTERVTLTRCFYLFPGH
Test: Inhibitory activity against human IL-1 beta converting enzyme from monocytic THP-1 cell line, activity expressed as the logarithm of the second order rate constant for inactivation
Type: cell-based

With `CC(C)[C@H](NC(=O)CCc1ccccc1)C(=O)N[C@@H](C)C(=O)N[C@@H](CC(=O)O)C(=O)COC(=O)c1ccc([N+](=O)[O-])cc1` the Activity was 6.11.
`CC(C)[C@H](NC(=O)OCc1ccccc1)C(=O)N[C@@H](CC(=O)O)C(=O)COP(=O)(Oc1ccccc1)Oc1ccccc1` gave an Activity of 4.7.
`C[C@H](NC(=O)[C@H](Cc1ccccc1)NC(=O)OCc1ccccc1)C(=O)COC(=O)c1c(Cl)cccc1Cl` was tested, and the Activity was 2.7.
Work on `CC(=O)N[C@@H](Cc1ccc(O)cc1)C(=O)N[C@H](C(=O)N[C@@H](C)C(=O)N[C@@H](CC(=O)O)C(=O)COC(=O)c1c(C(F)(F)F)cccc1C(F)(F)F)C(C)C` yielded an Activity of 5.98.
With `C=CCOC(=O)N[C@@H](CC(=O)O)C(=O)COC(=O)c1c(C(F)(F)F)cccc1C(F)(F)F` the Activity was 3.72.
Compound `C[C@H](NC(=O)[C@H](Cc1ccccc1)NC(=O)OCc1ccccc1)C(=O)COc1cc(C(F)(F)F)nn1-c1ccccc1` has an Activity of 2.7.
For `C=CCOC(=O)N[C@@H](CC(=O)O)C(=O)COC(=O)c1c(F)c(F)c(F)c(F)c1F`, the Activity was 2.99.
Work on `CC(C)[C@H](NC(=O)OCc1ccccc1)C(=O)N[C@@H](C)C(=O)N[C@@H](CC(=O)O)C(=O)COP(=O)(Oc1ccccc1)Oc1ccccc1` yielded an Activity of 5.07.
Compound `O=C(O)CC(NC(=O)Cn1c(-c2cccnc2)ncc(NC(=O)OCc2ccccc2)c1=O)C(=O)COc1cc(C(F)(F)F)nn1-c1ccccc1` (centres undefined) has an Activity of 5.16.
`CC(C)[C@H](NC(=O)OCc1ccccc1)C(=O)N[C@@H](C)C(=O)N[C@@H](CC(=O)O)C(=O)COP(=O)(Oc1ccc(Cl)cc1)Oc1ccc(Cl)cc1` showed an Activity of 5.36.
Compound `Cc1cccc(C)c1C(=O)OCC(=O)[C@H](CC(=O)O)NC(=O)[C@H](C)NC(=O)[C@@H](NC(=O)CCc1ccccc1)C(C)C` has an Activity of 6.08.
In the case of `C=CCOC(=O)N[C@@H](CC(=O)O)C(=O)COC(=O)c1c(C)cccc1C`, the Activity is reported as 2.91.
Compound `CN(C)CCCCCC(=O)Nc1cnc(-c2ccc(F)cc2)n(CC(=O)NC(CC(=O)O)C(=O)COC(=O)c2c(Cl)cccc2Cl)c1=O` (centres undefined) has an Activity of 4.95.
Compound `CC(C)[C@H](NC(=O)OCc1ccccc1)C(=O)N[C@@H](C)C(=O)N[C@@H](CC(=O)O)C(=O)COc1cc(C(F)(F)F)nn1-c1ccccc1` has an Activity of 5.45.
For `CC(C)[C@H](NC(=O)CCc1ccccc1)C(=O)N[C@@H](C)C(=O)N[C@@H](CC(=O)O)C(=O)COC(=O)c1c(C(F)(F)F)cccc1C(F)(F)F`, the Activity was 5.95.
`O=C(O)CC(NC(=O)Cn1c(-c2ccc(F)cc2)ncc(NC(=O)OCc2ccccc2)c1=O)C(=O)COP(=O)(Oc1ccccc1)Oc1ccccc1` (centres undefined) was tested, and the Activity was 5.16.
Work on `O=C(O)C[C@H](NC(=O)OCc1ccccc1)C(=O)COC(=O)c1c(Cl)cccc1Cl` yielded an Activity of 3.85.
For `CC(C)[C@H](NC(=O)OCc1ccccc1)C(=O)N[C@@H](CC(=O)O)C(=O)COc1cc(C(F)(F)F)nn1-c1ccccc1`, the Activity was 4.3.
Work on `O=C(O)CC(NC(=O)Cn1c(-c2ccc(F)cc2)ncc(NC(=O)OCc2ccccc2)c1=O)C(=O)COc1cc(C(F)(F)F)nn1-c1ccccc1` (centres undefined) yielded an Activity of 5.2.
`Nc1cnc(-c2ccc(F)cc2)n(CC(=O)NC(CC(=O)O)C(=O)COC(=O)c2c(Cl)cccc2Cl)c1=O` (centres undefined) gave an Activity of 4.56.
`O=C(O)C[C@H](NC(=O)OCc1ccccc1)C(=O)COP(=O)(Oc1ccccc1)Oc1ccccc1` was tested, and the Activity was 4.07.
Compound `CC(C)[C@H](NC(=O)[C@@H]1CCCN1C(=O)OCc1ccccc1)C(=O)N[C@@H](CC(=O)O)C(=O)COc1cc(C(F)(F)F)nn1-c1ccccc1` has an Activity of 2.48.
Work on `C=CCOC(=O)N[C@@H](CC(=O)O)C(=O)COC(=O)c1ccc([N+](=O)[O-])cc1` yielded an Activity of 1.79.
For `CC(C)[C@@H](C(=O)N[C@@H](C)C(=O)N[C@@H](CC(=O)O)C(=O)COc1cc(C(F)(F)F)nn1-c1ccccc1)N(C)C(=O)OCc1ccccc1`, the Activity was 3.93.
With `O=C(O)CC(NC(=O)Cn1c(-c2ccc(F)cc2)ncc(NC(=O)OCc2ccccc2)c1=O)C(=O)COC(=O)c1c(Cl)cccc1Cl` (centres undefined) the Activity was 5.43.
Compound `O=C(O)CC(NC(=O)Cn1c(-c2ccc(F)cc2)ncc(NC(=O)NCc2ccccc2)c1=O)C(=O)COC(=O)c1c(Cl)cccc1Cl` (centres undefined) has an Activity of 5.17.
Work on `CC(=O)N[C@@H](Cc1ccc(O)cc1)C(=O)N[C@H](C(=O)N[C@@H](C)C(=O)N[C@@H](CC(=O)O)C(=O)COC(=O)c1c(C)cccc1C)C(C)C` yielded an Activity of 6.04.
In the case of `CC(C)[C@H](NC(=O)OCc1ccccc1)C(=O)N[C@@H](C)C(=O)N[C@@H](CC(=O)O)C(=O)COC(=O)c1c(Cl)cccc1Cl`, the Activity is reported as 5.61.
For `O=C(O)CC(NC(=O)Cn1c(-c2cccs2)ncc(NC(=O)OCc2ccccc2)c1=O)C(=O)COC(=O)c1c(Cl)cccc1Cl` (centres undefined), the Activity was 5.43.
`O=C(O)CC(NC(=O)Cn1c(-c2ccc(F)cc2)ncc(NS(=O)(=O)c2ccccc2)c1=O)C(=O)COC(=O)c1c(Cl)cccc1Cl` (centres undefined) gave an Activity of 4.95.
For `C=CCOC(=O)N[C@@H](CC(=O)O)C(=O)COC(=O)c1c(O)cccc1O`, the Activity was 3.43.
`CC(C)[C@H](NC(=O)CCc1ccccc1)C(=O)N[C@@H](C)C(=O)N[C@@H](CC(=O)O)C(=O)COC(=O)c1ccccc1` was tested, and the Activity was 5.45.
Compound `CC(C)[C@H](NC(=O)OCc1ccccc1)C(=O)N(C)[C@@H](C)C(=O)N[C@@H](CC(=O)O)C(=O)COc1cc(C(F)(F)F)nn1-c1ccccc1` has an Activity of 5.37.
For `C[C@H](NC(=O)[C@H](Cc1ccccc1)NC(=O)OCc1ccccc1)C(=O)COP(=O)(Oc1ccccc1)Oc1ccccc1`, the Activity was 2.7.
Compound `CC(C)[C@H](NC(=O)OCc1ccccc1)C(=O)N[C@@H](C)C(=O)N(C)[C@@H](CC(=O)O)C(=O)COc1cc(C(F)(F)F)nn1-c1ccccc1` has an Activity of 2.48.
In the case of `CC(C)[C@H](NC(=O)OCc1ccccc1)C(=O)N1CCCCC1C(=O)N[C@H](CC(=O)O)C(=O)COc1cc(C(F)(F)F)nn1-c1ccccc1` (some centres undefined), the Activity is reported as 5.43.
`Cc1ncc(NC(=O)OCc2ccccc2)c(=O)n1CC(=O)NC(CC(=O)O)C(=O)COc1cc(C(F)(F)F)nn1-c1ccccc1` (centres undefined) gave an Activity of 4.98.
Work on `O=C(O)C[C@H](NC(=O)OCc1ccccc1)C(=O)COc1cc(C(F)(F)F)nn1-c1ccccc1` yielded an Activity of 4.04.
Work on `CC(C)C[C@H](NC(=O)OCc1ccccc1)C(=O)N[C@@H](Cc1ccccc1)C(=O)COP(=O)(Oc1ccccc1)Oc1ccccc1` yielded an Activity of 2.7.
Compound `CC(C)[C@H](NC(=O)CCc1ccccc1)C(=O)N[C@@H](C)C(=O)N[C@@H](CC(=O)O)C(=O)COC(=O)c1c(O)cccc1O` has an Activity of 5.85.
With `CC(C)[C@H](NC(=O)OCc1ccccc1)C(=O)N1CCC[C@H]1C(=O)N[C@@H](CC(=O)O)C(=O)COc1cc(C(F)(F)F)nn1-c1ccccc1` the Activity was 5.06.
For `O=C(O)CC(NC(=O)Cn1c(-c2ccc(F)cc2)ncc(NC(=O)c2ccco2)c1=O)C(=O)COC(=O)c1c(Cl)cccc1Cl` (centres undefined), the Activity was 4.66.
`CC(C)[C@H](NC(=O)OCc1ccccc1)C(=O)N[C@@H](CC(=O)O)C(=O)COP(=O)(Oc1ccc(Cl)cc1)Oc1ccc(Cl)cc1` was tested, and the Activity was 4.89.
Compound `CC(C)[C@H](NC(=O)CCc1ccccc1)C(=O)N[C@@H](C)C(=O)N[C@@H](CC(=O)O)C(=O)COC(=O)c1c(F)c(F)c(F)c(F)c1F` has an Activity of 6.04.
